These results are taken from patent publication US20130287890A1, “INHIBITOR OF THE PRODUCTION OF ADVANCED GLYCATION END PRODUCTS” (UENO FINE CHEMICALS INDUSTRY, LTD., priority 2012, published 2013).

Common to all, as to type: biochemical
One experiment concerns 3-DG. The experiment can be described thus: Quantitative determination of 3-DG (HPLC) after reaction of amino acids or food-derived proteins with carbohydrates at 120° C. for 60 minutes. The settings on record: for 3-DG: 120° C., 60 minutes. The method, then: Amino acids, carbohydrates and a phosphate buffer solution were charged in a 30 mL glass test tube in each amount shown in Table 1, followed by sealing and stirring. After reacting in an autoclave at 120° C. for 60 minutes, the reaction solution was cooled and then filtered through a 0.2 μm filter. The filtrate thus obtained was used as a sample. The amino acids and carbohydrates used are as follows.
To 2 mL of a sample, the same amount of a 60% perchloric acid solution was added to deproteinize the sample. The sample was neutralized with 4 mL of an aqueous saturated sodium hydrogen carbonate solution and 0.8 mL of a 0.1% methanol solution of 2,3-diaminonaphthalene was added, and then the mixture was reacted at 4° C. for 16 hours. Next, the reactant was extracted with 4.4 mL of ethyl acetate, concentrated to dryness using an evaporator, dissolved in 5 mL of methanol, and then filtered through a 0.45 μm filter. The filtrate was subjected to high-performance liquid chromatography and 3-DG was quantitatively determined under the following measurement conditions.
Injection amount: 20 μL Column: TSK-GEL, ODS-80Ts (4.6×150 mm, manufactured by TOSOH CORPORATION) Column temperature: 30° C. Mobile phase: 50 mM phosphoric acid:methanol:acetonitrile=7:1.5:1.5 Flow rate: 1 mL/min.
Food-derived proteins, carbohydrates and a phosphate buffer solution were charged in a 30 mL glass test tube in each amount shown in Table 6, followed by sealing and stirring, and then the mixture was reacted in an autoclave at 120° C. for 60 minutes. Next, the reactant was fractionated by centrifugation at 3,000 rpm for 3 hours using an ultrafiltration unit (VIVA SPIN 20, manufactured by Sartorius Corporation). The obtained low molecular weight fraction was used as a sample for determination of 3-DG, while the obtained high molecular weight fraction was used as a sample for the determination of fluorescent AGEs, RAGE agonist activity and RAGE antagonist activity. Food-derived proteins and carbohydrates used are as follows: […]

The next experiment concerns fluorescent AGEs. The experiment can be described thus: Quantitative determination of fluorescent AGEs (relative to perylene) after reaction at 120° C. for 60 minutes. Conditions: for Fluorescent AGEs: 120° C., 60 minutes. The method, then: Amino acids, carbohydrates and a phosphate buffer solution were charged in a 30 mL glass test tube in each amount shown in Table 1, followed by sealing and stirring. […] The filtrate thus obtained was used as a sample. The amino acids and carbohydrates used are as follows. After weighing 2.5 mg of a standard substance perylene, the standard substance perylene was fully dissolved in 50 mL of deaerated ethanol added thereto to prepare a perylene solution. The perylene solution diluted to the concentration of 10 μM was exposed to excitation light with a wavelength of 386 nm and then the area was calculated by measuring a fluorescence intensity ranging from 410 to 600 nm. […] Food-derived proteins, carbohydrates and a phosphate buffer solution were charged in a 30 mL glass test tube in each amount shown in Table 6, followed by sealing and stirring, and then the mixture was reacted in an autoclave at 120° C. for 60 minutes. Next, the reactant was fractionated by centrifugation at 3,000 rpm for 3 hours using an ultrafiltration unit (VIVA SPIN 20, manufactured by Sartorius Corporation). […] Food-derived proteins and carbohydrates used are as follows: After 0.4 g of a high molecular weight fraction and 8 mL of 6N hydrochloric acid were charged in an ampule and the air in the ampule was replaced with nitrogen, hydrolysis was performed at 110° C. for 16 hours in a heat block. After reaction, 8 mL of 5N sodium hydroxide was added, and pH was adjusted using 1N hydrochloric acid and 1N sodium hydroxide to make pH within a range of 7.2 to 7.6. […] Using the thus obtained filtrate as a sample, fluorescent AGEs were quantitatively determined using the following methods. After weighing 2.5 mg of a standard substance perylene, the standard substance perylene was fully dissolved in 10 mL of deaerated ethanol added thereto to prepare a perylene solution. The perylene solution diluted to the concentration of 10 μM was exposed to excitation light with a wavelength of 386 nm and then the area was calculated by measuring a fluorescence intensity ranging from 410 to 600 nm.

The next experiment deals with CML. The experiment can be described thus: Quantitative determination of CML (CircuLex ELISA kit) after reaction at 120° C. for 60 minutes. The settings on record: Test Example 1; for CML: lysine + arginine 0.2 g each, carbohydrate 3.40 g each, 120° C., 60 minutes. How it is done: Amino acids, carbohydrates and a phosphate buffer solution were charged in a 30 mL glass test tube in each amount shown in Table 1, followed by sealing and stirring. […] The filtrate thus obtained was used as a sample. The amino acids and carbohydrates used are as follows. Using CircuLex CML/Nε-(carboxymethyl) lysine ELISA kit (manufactured by CycLex Co., Ltd.), quantitative determination of CML was performed. Thirty (30) or more minutes before use, reagents and CML solid-phase wells were put to room temperature. […] By performing dilution with standard dilution buffers, standards 1 to 7 were prepared. The sample was diluted as necessary with sample dilution buffers. A CML-HSA standard and 60 μL of the sample were dispensed into a 96-well plate, which is not an accessory to the kit. Next, ultrapure water (Milli-Q water) was added to a first antibody powder, and by diluting with sample dilution buffers, a first antibody solution was prepared, and then 60 μL of the antibody solution was dispensed into the plate and mixed. […] Then, the reaction solution was discarded, and 350 μL of rinsing fluid was dispensed to wash the plate. The washing was performed for 4 times. After liquid on the plate was removed, 100 μL of a second antibody solution was dispensed and reacted at 25° C. for 1 hour while being shaken at 300 rpm. The reaction solution was discarded, and the plate was washed for 4 times with 350 μL of rinsing fluid again. Liquid on the plate was removed, and 100 μL of a color coupler was dispensed. Then, the solution was left to stand for 10 minutes under a light shielding condition while being shaken at 300 rpm. Finally, 100 μL of a reaction stop solution was dispensed, and within 30 minutes after the dispensing, measurement was performed at main wavelength 450 nm/reference wavelength 595 nm using a micro-plate reader. The concentration of CML was determined using the calibration curve of a CML standard solution, based on measurement values of the sample.

The mark [1] stands for this setting: Test Example 1, amino acids, compared with the test section 1 containing only sucrose.
[2] abbreviates: Test Example 1, lysine + arginine 0.2 g each, carbohydrate 3.40 g each, 20 mL phosphate buffer.
Setting [3] is: Test Example 2, gliadin 0.1 g + carbohydrate 3.4 g.
Setting [4] is: Test Example 2, lactalbumin 0.05 g + carbohydrate 3.4 g.
[5] abbreviates: Test Example 2, lactic casein 0.01 g + carbohydrate 3.4 g.
[6] abbreviates: Test Example 2, ovalbumin 0.05 g + carbohydrate 3.4 g.
Setting [7] is: Test Example 2, ovalbumin, lactalbumin, gliadin, lactic casein and soybean casein, compared with sections containing sucrose.
Where [8] appears, read: Test Example 2, soybean casein 0.01 g + carbohydrate 3.4 g.
The mark [9] stands for this setting: Test Example 1, lysine + arginine 0.2 g each, carbohydrate 3.40 g each.

For the compound `OC[C@@H](O)[C@@H](O[C@H]1O[C@H](CO)[C@@H](O)[C@H](O)[C@H]1O)[C@H](O)[C@@H](O)CO` [Maltitol], the “production of 3-DG” value with 3-DG (setting [1]) and in the experiment with 3-DG (setting [7]) was “significantly decreased” each time. Moreover, the 3-DG is on record as 36 nmol/1 g of amino acid in the experiment on 3-DG (setting [2]); 240 nmol/1 g of protein with 3-DG (setting [3]); 656 nmol/1 g of protein with 3-DG (setting [4]); 2,734 nmol/1 g of protein in the experiment on 3-DG (setting [5]); 523 nmol/1 g of protein in the experiment on 3-DG (setting [6]); 1,446 nmol/1 g of protein with 3-DG (setting [8]). Besides, the “production of fluorescent AGEs” value in the experiment on fluorescent AGEs (setting [1]) was “decreased”. Moreover, the “Fluorescent AGEs” value with fluorescent AGEs (setting [9]) is recorded as 39 nmol/1 g of amino acid; with fluorescent AGEs (setting [3]) it was 632 nmol/1 g of protein; in the experiment with fluorescent AGEs (setting [4]) it was 105 nmol/1 g of protein; with fluorescent AGEs (setting [5]), 84 nmol/1 g of protein; with fluorescent AGEs (setting [6]), 136 nmol/1 g of protein; with fluorescent AGEs (setting [8]), 20 nmol/1 g of protein. Further, the “production of AGEs” value in the experiment on fluorescent AGEs (setting [7]) is “decreased”. Also, the “production of CML” value in the experiment with CML (amino acids, compared with the test section 1 containing only sucrose) is given as “decreased”. Moreover, in the experiment with CML, the CML is 15.0 nmol/1 g of amino acid.
Take `OC[C@H]1O[C@@](CO)(O[C@H]2O[C@H](CO)[C@@H](O)[C@H](O)[C@H]2O)[C@@H](O)[C@@H]1O` [Sucrose, reference compound]: the 3-DG in the experiment with 3-DG (setting [2]) is 151 nmol/1 g of amino acid; with 3-DG (setting [3]), 2,645 nmol/1 g of protein; in the experiment with 3-DG (setting [4]), 4,758 nmol/1 g of protein; with 3-DG (setting [5]), 22,464 nmol/1 g of protein; with 3-DG (setting [6]) it was 4,532 nmol/1 g of protein; in the experiment on 3-DG (setting [8]), 24,285 nmol/1 g of protein. Besides, the “Fluorescent AGEs” value in the experiment on fluorescent AGEs (setting [9]) was 79 nmol/1 g of amino acid; in the experiment on fluorescent AGEs (setting [3]), 649 nmol/1 g of protein; in the experiment with fluorescent AGEs (setting [4]), 119 nmol/1 g of protein; in the experiment on fluorescent AGEs (setting [5]), 100 nmol/1 g of protein; with fluorescent AGEs (setting [6]), 168 nmol/1 g of protein; with fluorescent AGEs (setting [8]) it was 18 nmol/1 g of protein. Moreover, the CML in the experiment with CML is given as 17.4 nmol/1 g of amino acid.
